Source: article PMC6669322, “Small Molecule Binding to Alzheimer Risk Factor CD33 Promotes Aβ Phagocytosis” (iScience, 2019)

Key:
[1] = target: T1, CD33 wild-type (Homo sapiens, UniProt P20138); assay: surface plasmon resonance (SPR), CD33 wild-type V-set domain; type: binding; conditions: P22 as analyte, immobilized CD33 wild-type; 1:1 steady state model
T1 construct: DNA encoding D18 to H143 of human CD33; made in house
Experimental: We next performed surface plasmon resonance (SPR) measurements on P22 binding to CD33 wild-type, and selected mutants, to obtain detailed kinetic data (see Transparent Methods). The CD33 V-set domain has a free cysteine residue (C36), which caused anomalous results in some of our SPR experiments due to disulfide-linked oligomers forming in solution.
Figure 3 P22 Binding to CD33 Wild-Type and Mutants (A) An example of affinity analysis for 1–243 μM (3-fold dilutions) of P22 binding to immobilized CD33^C36S. Data obtained in duplicate using single-cycle analysis and fit to a steady-state binding model to determine the equilibrium binding constant. (B) An example of affinity analysis of P22 binding to immobilized CD33 wild-type (WT) as per example in (A). (C) Sensorgram data for 0.01–9 μM (3-fold dilutions) of CD33^C36S binding to immobilized P22. Data obtained in triplicate using single concentration cycles and fit to a 1:1 binding model for kinetic analysis. (D) Sensorgram data for 0.03–9 μM (3-fold dilutions) CD33 WT binding to immobilized P22. Data obtained in triplicate using single concentration cycles and fit to a bivalent analyte model for kinetic analysis. Measurements in triplicate showing mean ± SD. […] Data presented are representative of three independent experiments performed in quadruplicate for each compound. […]

[2] = target: T2, CD33 Y127A (Homo sapiens, UniProt P20138, Y127A); assay: SNAP-tag homogeneous time-resolved fluorescence binding assay, CD33 Y127A; conditions: Y127A variant, in words
T2 construct: human CD33 ORF (NM_001772.3), lacking its signal peptide; expressed in transfected cells; host or cells: HEK293T, transient, pT8-SNAP vector
T2 sequence (P20138 18-364 Y127A): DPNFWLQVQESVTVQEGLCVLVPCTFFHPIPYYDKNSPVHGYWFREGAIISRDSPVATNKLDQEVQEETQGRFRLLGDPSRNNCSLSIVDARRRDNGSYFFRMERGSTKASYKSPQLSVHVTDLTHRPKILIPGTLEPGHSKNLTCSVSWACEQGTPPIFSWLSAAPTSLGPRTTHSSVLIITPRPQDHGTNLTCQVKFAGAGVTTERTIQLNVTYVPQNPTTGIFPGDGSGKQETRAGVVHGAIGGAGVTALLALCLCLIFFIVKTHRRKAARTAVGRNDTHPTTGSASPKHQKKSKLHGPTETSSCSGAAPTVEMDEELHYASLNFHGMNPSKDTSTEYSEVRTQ
Experimental: (§1) Figure 3 P22 Binding to CD33 Wild-Type and Mutants (A) An example of affinity analysis for 1–243 μM (3-fold dilutions) of P22 binding to immobilized CD33^C36S. Data obtained in duplicate using single-cycle analysis and fit to a steady-state binding model to determine the equilibrium binding constant. (B) An example of affinity analysis of P22 binding to immobilized CD33 wild-type (WT) as per example in (A). (C) Sensorgram data for 0.01–9 μM (3-fold dilutions) of CD33^C36S binding to immobilized P22. Data obtained in triplicate using single concentration cycles and fit to a 1:1 binding model for kinetic analysis. […]
(§2) We then used our structural data to design mutations of key residues interacting with P22 to assess which interactions were the most important for binding affinity. The residues were mutated into alanine, and the effect of these mutations on P22 binding affinity was assessed using a SNAP-tag homogeneous time-resolved fluorescence binding assay (see Transparent Methods and Figures 3E–3G). […]
(§3) HEK293T cells were cultured in DMEM (ThermoFisher Scientific # 11965092) containing 10% FBS (Hyclone # SH30070.03) and 1% Penicillin-Streptomycin (ThermoFisher Scientific # 15140122) and transfected using Fugene HD (Promega # E2312) in 10 cm plates. […] The cells were counted, centrifuged and resuspended in PBS at a concentration of 1,000 cells/μL and 10 μL were plated into each well. […]

[3] = target: CD33 R119A (Homo sapiens, UniProt P20138, R119A); assay: SNAP-tag homogeneous time-resolved fluorescence binding assay, CD33 R119A; set-up: human CD33 ORF (NM_001772.3), lacking its signal peptide; expressed in transfected cells; host or cells: HEK293T, transient, pT8-SNAP vector; conditions: binding affinity, R119A vs WT
CD33 R119A, sequence (P20138 18-364 R119A): as the sequence (P20138 18-364 Y127A) above, with R102A, A110Y counted along it
Experimental: as §1, §2, §3

T1 sequence (P20138 18-143): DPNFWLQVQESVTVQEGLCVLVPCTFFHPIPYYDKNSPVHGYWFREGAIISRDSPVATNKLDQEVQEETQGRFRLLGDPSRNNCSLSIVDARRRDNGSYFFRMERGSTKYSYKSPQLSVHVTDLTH

## Cc1cc(C(=O)NC[C@@H](O)[C@@H](O)[C@@H]2O[C@@](OC[C@H]3O[C@@H](O[C@H]4[C@H](O)[C@@H](O)[C@H](OCCN)O[C@@H]4CO)[C@H](O)[C@@H](O)[C@H]3O)(C(=O)O)C[C@H](O)[C@H]2NC(=O)Cn2cc(C3CCCCC3)nn2)cc(C)c1O [P22, β-D-Glucopyranoside, 2-aminoethyl O-[N-[2-(4-cyclohexyl-1H-1,2,3-triazol-1-yl)acetyl]-9-deoxy-9-[(4-hydroxy-3,5-dimethylbenzoyl)amino]-α-neuraminosyl] (2→6)-O-β-D-galactopyranosyl-(1→4)-]
[1]
  Kd: 118 ± 41 µM
[2]
  specific binding (total binding – binding in presence of 100 μM non-labeled P22): completely abolished
[3]
  Fold-decrease compared to WT: > 30 fold
